Each block holds one compound with its values, some of them ahead of it. Square brackets hold non-standard residues; d marks the D form. Peptide text beside a SMILES is read from it. ξ: configuration not given here. Tic = O=C(O)[C@@H]1Cc2ccccc2CN1; ξD = NC(CC(=O)O)C(=O)O
Experiments:
[1] = system: mature IL-1β, Human Peripheral Blood Mononuclear Cells (PBMC); assay: Cell assay: IL-1β assay with human PBMC or enriched adherent mononuclear cells; format: cell-based; conditions: LPS-stimulated cells, mature IL-1β by ELISA
Source text: IL-1β Assay with a Mixed Population of Human Peripheral Blood Mononuclear Cells (PBMC) or Enriched Adherent Mononuclear Cells
Processing of pre-IL-1β by ICE can be measured in cell culture using a variety of cell sources. Human PBMC obtained from healthy donors provides a mixed population of lymphocyte subtypes and mononuclear cells that produce a spectrum of interleukins and cytokines in response to many classes of physiological stimulators. Adherent mononuclear cells from PBMC provides an enriched source of normal monocytes for selective studies of cytokine production by activated cells.
An initial dilution series of test compound in DMSO or ethanol is prepared, with a subsequent dilution into RPMI-10% FBS media (containing 2 mM L-glutamine, 10 mM HEPES, 50 U and 50 ug/ml pen/strep) respectively to yield drugs at 4× the final test concentration containing 0.4% DMSO or 0.4% ethanol. The final concentration of DMSO is 0.1% for all drug dilutions. A concentration titration which brackets the apparent Ki for a test compound determined in an ICE inhibition assay is generally used for the primary compound screen.
We generally test 5-6 compound dilutions and have performed the cellular component of the assay in duplicate, with duplicate ELISA determinations on each cell culture supernatant.
Buffy coat cells isolated from one pint human blood (yielding 40-45 ml final volume plasma plus cells) are diluted with media to 80 ml and LeukoPREP separation tubes (Becton Dickinson) are each overlaid with 10 ml of cell suspension. After 15 min centrifugation at 1500-1800×g, the plasma/media layer is aspirated and then the mononuclear cell layer is collected with a Pasteur pipette and transferred to a 15 ml conical centrifuge tube (Corning). Media is added to bring the volume to 15 ml, gently mix the cells by inversion and centrifuge at 300×g for 15 min. Resuspend the PBMC pellet in a small volume of media, count cells and adjust to 6×10^6 cells/ml.
For the cellular assay, add 1.0 ml of the cell suspension to each well of a 24-well flat bottom tissue culture plate (Corning), 0.5 ml test compound dilution and 0.5 ml LPS solution (Sigma #L-3012; 20 ng/ml solution prepared in complete RPMI media; final LPS concentration 5 ng/ml). The 0.5 ml additions of test compound and LPS are usually sufficient to mix the contents of the wells. Three control mixtures are run per experiment, with either LPS alone, solvent vehicle control, and/or additional media to adjust the final culture volume to 2.0 ml. The cell cultures are incubated for 16-18 hr at 37° C. in the presence of 5% CO2.
At the end of the incubation period, cells are harvested and transferred to 15 ml conical centrifuge tubes. After centrifugation for 10 min at 200×g, supernatants are harvested and transferred to 1.5 ml Eppendorf tubes. It may be noted that the cell pellet may be utilized for a biochemical evaluation of pre-IL-1β and/or mature IL-1β content in cytosol extracts by western blotting or ELISA with pre-IL-1β specific antisera.
PBMC are isolated and prepared as described above. Media (1.0 ml) is first added to wells followed by 0.5 ml of the PBMC suspension. After a one hour incubation, plates are gently shaken and nonadherent cells aspirated from each well. Wells are then gently washed three times with 1.0 ml of media and final resuspended in 1.0 ml media. The enrichment for adherent cells generally yields 2.5-3.0×10^5 cells per well. […]

[2] = target: T1, interleukin-1β converting enzyme (ICE) (Homo sapiens, UniProt P29466); assay: Enzyme assay with UV-visible substrate (Succinyl-Tyr-Val-Ala-Asp-pNitroanilide); format: biochemical
T1 sequence (P29466 120-297 limits assumed): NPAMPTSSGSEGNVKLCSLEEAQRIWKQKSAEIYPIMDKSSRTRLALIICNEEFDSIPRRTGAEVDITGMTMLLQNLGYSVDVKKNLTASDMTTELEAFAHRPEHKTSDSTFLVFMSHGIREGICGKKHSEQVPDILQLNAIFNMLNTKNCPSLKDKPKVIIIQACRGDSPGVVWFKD
T1 sequence (P29466 317-404 limits assumed): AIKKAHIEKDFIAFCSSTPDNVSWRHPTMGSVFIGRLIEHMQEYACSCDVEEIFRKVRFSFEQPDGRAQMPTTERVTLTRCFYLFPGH
Experimental: 1. Enzyme assay with UV-visible substrate
This assay is run using an Succinyl-Tyr-Val-Ala-Asp-pNitroanilide substrate (SEQ ID NO: 1). Synthesis of analogous substrates is described by L. A. Reiter (Int. J. Peptide Protein Res. 43, 87-96 (1994)). The assay mixture contains: […]
The visible ICE assay is run in a 96-well microtiter plate. Buffer, ICE and DMSO (if inhibitor is present) are added to the wells in the order listed. The components are left to incubate at room temperature for 15 minutes starting at the time that all components are present in all wells. The microtiter plate reader is set to incubate at 37° C. After the 15 minute incubation, substrate is added directly to the wells and the reaction is monitored by following the release of the chromophore (pNA) at 405-603 nm at 37° C. for 20 minutes. A linear fit of the data is performed and the rate is calculated in mOD/min. DMSO is only present during experiments involving inhibitors, buffer is used to make up the volume to 100 μl in the other experiments.
(§1) For determination of enzyme inhibition constants (Ki) or the mode of inhibition (competitive, uncompetitive or noncompetitive), the rate data determined in the enzyme assays at varying inhibitor concentrations are computer-fit to standard enzyme kinetic equations (see I. H. Segel, Enzyme Kinetics, Wiley-Interscience, 1975).

[3] = target: T1, interleukin-1β converting enzyme (ICE); assay: Enzyme assay with fluorescent substrate (Acetyl-Tyr-Val-Ala-Asp-AMC); format: biochemical; conditions: Example 2 table, read-out: Fluorescence Ki
Experimental: 2. Enzyme Assay with Fluorescent Substrate
This assay is run essentially according to Thornberry et al. (Nature 356: 768-774 (1992)), using substrate 17 referenced in that article. The substrate is: Acetyl-Tyr-Val-Ala-Asp-amino-4-methylcoumarin (AMC) (SEQ ID NO: 2). The following components are mixed: […]
The assay is run in a 96 well microtiter plate. Buffer and ICE are added to the wells. The components are left to incubate at 37° C. for 15 minutes in a temperature-controlled wellplate. After the 15 minute incubation, the reaction is started by adding substrate directly to the wells and the reaction is monitored @37° C. for 30 minutes by following the release of the AMC fluorophore using an excitation wavelength for 380 nm and an emission wavelength of 460 nm. A linear fit of the data for each well is performed and a rate is determined in fluorescence units per second.
as §1

[4] = Homo sapiens, PBMC, Example 2 table

- Ki ([2]; Example 6 table): 175 nM
Compound: COc1cccc2nc(C(=O)[C@H](CC(=O)O)NC(=O)[C@@H]3C[C@H](Oc4ccccc4)CN3C(=O)[C@@H](NC(C)=O)C(C)C)oc12 [Compound 86, N-Acetyl-(S)-valinyl-(4-(S)-phenoxy)prolinyl-3(S)-amino-4-(7-methoxybenzoxazol-2-yl)-4-oxo-butanoic acid]
- IC50 ([1]; Example 6 table): 4000 nM

- Ki ([2]; Example 6 table): 430 nM
Compound: O=C(O)C[C@H](NC(=O)CN1C(=O)[C@@H](NC(=O)CCc2ccccc2)CN(C(=O)CCc2ccccc2)c2ccccc21)C(=O)c1ncc(-c2c(Cl)cccc2Cl)o1 [Compound 108c, 4-[5-(2,6-Dichlorophenyl)oxazol-2-yl]-4-oxo-3(S)-{2-[2-oxo-5-(3-phenylpropionyl)-3(S)-(3-phenylpropionylamino)-2,3,4,5-tetrahydrobenzo[b][1,4]diazepin-1-yl]-acetylamino}butyric acid]

- Ki ([2]; Example 6 table): 4300 nM
Compound: O=CC(CC(=O)O)NC(=O)CN1C(=O)C(NC(=O)OCc2ccccc2)CN(Cc2ccccc2)C(=O)C1Cc1ccccc1 (stereo not shown) [Compound 121, 3-{2-[2,4-Dibenzyl-3,7-dioxo-6-(N-benzyloxycarbonylamino)-[1,4]diazepan-1-yl]-acetylamino}-4-oxo-butyric acid]

- Ki ([2]; Example 2 table): 10 nM
- Ki [3]: 2 nM
Compound: CC(=O)N[C@@H](Cc1ccc(O)cc1)C(=O)N[C@H](C(=O)N1CC(OCc2ccccc2)C[C@H]1C(=O)NC(C=O)CC(=O)O)C(C)C (stereo partly shown) [Compound K, N-[N-Acetyl-tyrosinyl-valinyl-(4-benzyloxy)prolinyl]-3-amino-4-oxobutanoicacid]
- IC50 ([1]; Example 2 table): 2000 to 11000 nM

Compound: CC(=O)N[C@@H](Cc1ccc(O)cc1)C(=O)N[C@H](C(=O)N1CC(Oc2ccccc2)C[C@H]1C(=O)NC(C=O)CC(=O)O)C(C)C (stereo partly shown) [I, N-(N-Acetyl-tyrosinyl-valinyl-(4-phenoxyprolinyl))-3-amino-4-oxobutanoicacid]
- IC50 [1, 4]: 2600 nM

Compound: CC(=O)N[C@@H](Cc1ccc(O)cc1)C(=O)N[C@H](C(=O)N1CC(O)C[C@H]1C(=O)NC(C=O)CC(=O)O)C(C)C (stereo partly shown) [J, N-[N-Acetyl-tyrosinyl-valinyl-(4-hydroxyprolinyl)]-3-amino-4-oxobutanoicacid]
- IC50 [1, 4]: 5000 to 7000 nM

Compound: CC(=O)N[C@@H](Cc1ccc(O)cc1)C(=O)N[C@H](C(=O)N1Cc2ccccc2C[C@H]1C(=O)NC(C=O)CC(=O)O)C(C)C (stereo partly drawn) [L, N-[2-(N-Acetyl-tyrosinyl-valinyl)-(S)-1,2,3,4-tetrahydroisoquinoline-3-carbonyl]-3-amino-oxobutanoic acid] (Ac-YV[Tic][ξD]-aldehyde)
- Ki ([2]; Example 2 table): 14 nM

Compound: N-(N-Acetyl-tyrosinyl-valinyl-pipecolyl)-3-amino-4-oxobutanoic acid [H]
- IC50 ([1]; Example 2 table): 6000 to 11000 nM
- Ki ([2]; Example 2 table): 23 nM
- Ki [3]: 4.7 nM

From US5716929A (Vertex Pharmaceuticals, Inc., priority 1995, dated 1998)
